Data as given in patent US10865216B2, “Tricyclic Gyrase inhibitors” (MERCK SHARP & DOHME CORP., priority 2012, dated 2020).
Values after ≈ are worked out from the molar mass of the structure shown. Read-outs that look alike come from different tables or passages of the source.

Assays:
S. aureus ATCC 13709 = assay: MIC, S. aureus ATCC 13709; format: cell-based; details: for MIC: Staphylococcus aureus
E. coli ATCC 25922 = assay: MIC, E. coli ATCC 25922; format: cell-based; details: for MIC: Escherichia coli
[1] = ATCC13709, S. aureus, Alamar Blue read after overnight incubation at 35° C., read-out: MIC Sa
[2] = ATCC25922, E. coli, Alamar Blue read after overnight incubation at 35° C., read-out: MIC Ec
[3] = S. aureus, Alamar Blue read after overnight incubation at 35° C.
[4] = E. coli, Alamar Blue read after overnight incubation at 35° C.

| SMILES | MIC (S. aureus ATCC 13709; [1]) [µg/mL] | MIC (E. coli ATCC 25922; [2]) [µg/mL] | MIC Sa (S. aureus ATCC 13709; [3]) [µg/mL] | MIC Ec (E. coli ATCC 25922; [4]) [µg/mL] | other results |
| --- | --- | --- | --- | --- | --- |
| CNc1cccc2c1[nH]c1nc(Sc3cnc4cccnc4c3)nc(N3CCC4(CCNCC4)C3)c12 [Compound 1.56] | 4 (≈ 8.05 µM) | 32 (≈ 64.4 µM) | – | – | – |
| CNc1cc(F)cc2c1[nH]c1nc3nc(c12)N[C@@H](CN)COCCCNC(=O)CSc1ncc(cn1)O3 | – | – | – | – | MIC (S. aureus ATCC 13709; ATCC13709, Table 15, R2 is joined to R4, read-out: SA MIC): 2 µg/mL (≈ 3.79 µM); MIC (E. coli ATCC 25922; ATCC25922, Table 15, R2 is joined to R4, EC8 not defined, read-out: EC8 MIC): 8 µg/mL (≈ 15.2 µM) |
| CNc1cccc2c1[nH]c1nc(Oc3cnc(C)nc3)nc(Oc3cnc(C)nc3)c12 [Compound 8.2] | 1 (≈ 2.41 µM) | > 32 | – | – | – |
| CNc1cc(F)cc2c1[nH]c1nc(Oc3ccc4cncnc4c3)nc(N3C[C@H]4C[C@@H]3C[C@H]4N)c12 [Compound 10.97] | – | – | – | – | MIC Sa (S. aureus ATCC 13709; Table 18, Sa): ≤ 0.5 µg/mL; MIC Ec (E. coli ATCC 25922; Table 18, Ec): 2 µg/mL (≈ 4.25 µM) |
| CNc1cc(F)cc2c1[nH]c1nc(Oc3ccc4ccnn4c3)nc(N3C[C@H]4C[C@@H]3C[C@H]4N)c12 [Compound 10.50] | – | – | – | – | MIC Sa (S. aureus ATCC 13709; Table 18, Sa): ≤ 0.5 µg/mL; MIC Ec (E. coli ATCC 25922; Table 18, Ec): ≤ 0.5 µg/mL |
| CNc1nccc2c1[nH]c1nc(Oc3cncc(F)c3)nc(N3CCC4(CC4N)C3)c12 (centres unmarked) [Compound 7.07] | 16 (≈ 38.1 µM) | > 64 | – | – | – |
| Cc1ncc(Oc2nc(N3C[C@H](N)C4(CC4)C3)c3c(n2)[nH]c2c(N(C)C(=O)[C@H](C)NC(=O)[C@H](C)N)cc(F)cc23)cn1 [Compound 4.425] | > 16 | > 16 | – | – | – |
| CNc1cccc2c1[nH]c1nc(Sc3cnc4ccc[n+]([O-])c4c3)nc(N3CCC4(CC4N)C3)c12 (centres unmarked) [Compound 1.38] | ≤ 0.5 | 2 (≈ 4.13 µM) | – | – | – |
| CNc1cc(F)cc2c1[nH]c1nc(Oc3cnc(C)nc3)nc(N3CCC(C)(N)CC3)c12 [Compound 4.135] | – | – | ≤0.5 | 1 (≈ 2.29 µM) | – |
| CCNC(=O)c1cncc(Oc2nc(NCC)c3c(n2)[nH]c2c(NC)cc(F)cc23)c1 [Compound 4.384] | – | – | 1 (≈ 2.36 µM) | >16 | – |
| CNc1cc(F)cc2c1[nH]c1nc(Nc3cccnc3)nc(N3C[C@H]4C[C@@H]3C[C@H]4N)c12 [Compound 10.44] | – | – | – | – | MIC Sa (S. aureus ATCC 13709; Table 18, Sa): ≤ 0.5 µg/mL; MIC Ec (E. coli ATCC 25922; Table 18, Ec): ≤ 0.5 µg/mL |
| CCc1cc(F)cc2c1[nH]c1nc(Oc3cncnc3)nc(N3CC4C(N)C4C3)c12 (centres unmarked) [Compound 2.2] | – | – | 2 (≈ 4.93 µM) | 4 (≈ 9.87 µM) | – |
| CNc1cccc2c1[nH]c1nc(Sc3cncc(S(=O)(=O)NCCO)c3)nc(N3CC4C(N)C4C3)c12 (centres unmarked) [Compound 1.42] | 8 (≈ 15.2 µM) | 32 (≈ 60.8 µM) | – | – | – |
| CNc1cccc2c1[nH]c1nc(Sc3cnc4ccc[n+]([O-])c4c3)nc(N3CC4C(N)C4C3)c12 (centres unmarked) [Compound 1.13] | – | ≤ 0.5 | ≤0.5 | – | – |
| CNc1cc(F)cc2c1[nH]c1nc(Oc3cnc(OC)nc3)nc(N3C[C@H](N)C4(CC4)C3)c12 [Compound 4.433] | ≤ 0.5 | ≤ 0.5 | – | – | – |
| COc1cccc2c1[nH]c1nc(Oc3cncnc3)nc(N3CCC(NC(C)=O)C3)c12 (centres unmarked) [Compound 2.11] | – | – | 4 (≈ 9.54 µM) | >64 | – |
| CNc1cc(F)c2c3c1[nH]c1nc(Oc4cnc(C)nc4)nc(c13)N1CCC[C@H]1CNC2 | – | – | – | – | SA MIC (S. aureus ATCC 13709; Table 12, Z is C and connected to R4): 16 µg/mL; EC8 MIC (E. coli ATCC 25922; Table 12, Z is C and connected to R4, EC8 not defined): > 16 µg/mL |
| CNc1cccc2c1[nH]c1nc(Sc3cnc4cccnc4c3)nc(N3CCC(CN)C3)c12 (centres unmarked) [Compound 1.48] | ≤ 0.5 | 2 (≈ 4.38 µM) | – | – | – |
| CNc1nccc2c1[nH]c1nc(Sc3cnc4nccnc4c3)nc(N3CC[C@@H](N)C3)c12 [Compound 7.01] | 8 (≈ 18 µM) | > 64 | – | – | – |
| CNc1cccc2c1[nH]c1nc(Oc3cncc(F)c3)cc(N3C[C@@H](NC)C4(CC4)C3)c12 [Compound 3.51] | 8 (≈ 18.5 µM) | 32 (≈ 74 µM) | – | – | – |
| CNc1cc(F)cc2c1[nH]c1nc(Oc3ccc(C#N)nc3)nc(N3CC4CCNC4C3)c12 (centres unmarked) [Compound 4.330] | – | – | ≤0.5 | ≤0.5 | – |
| CNc1cc(F)cc2c1[nH]c1nc(Oc3cnc(C4CC4)nc3)nc(N3CC4CCC(CN)C4C3)c12 (centres unmarked) [Compound 4.253] | – | – | ≤0.5 | ≤0.5 | – |
| CNc1cc(F)cc2c1[nH]c1nc(Oc3cnc(C)nc3)nc(N3CCCC(N)CC3)c12 (centres unmarked) [Compound 4.071] | – | – | ≤0.5 | 2 (≈ 4.58 µM) | – |
| Cc1ncc(Oc2nc(N3C[C@H](NC(=O)CN)C4(CC4)C3)c3c(n2)[nH]c2c(N(C)C(=O)CN)cc(F)cc23)cn1 [Compound 4.427] | > 16 | > 16 | – | – | – |
| CNc1cc(F)cc2c1[nH]c1nc(Nc3cnc4nccnc4c3)nc(N3C[C@H]4CC3C[C@H]4N)c12 | – | – | – | – | SA MIC (S. aureus ATCC 13709; Table 13, L = NH): ≤ 0.5 µg/mL; EC MIC (E. coli ATCC 25922; Table 13, L = NH): 16 µg/mL |
| CNc1cc(F)cc2c1[nH]c1nc(Oc3cnc(C#N)c(C)c3)nc(N3CC4CC3C[C@@H]4N)c12 (some centres unmarked) [Compound 4.435] | ≤ 0.5 | ≤ 0.5 | – | – | – |
| CNc1ncc(Oc2nc(N3CC[C@@H](N)C3)c3c(n2)[nH]c2c(NC)cc(F)cc23)cn1 [Compound 4.219] | – | – | ≤0.5 | ≤0.5 | – |
| CNc1cc(F)cc2c1[nH]c1nc(Oc3cncnc3)nc(N3CC4CCC(N)C4C3)c12 (centres unmarked) [Compound 4.026] | – | – | ≤0.5 | ≤0.5 | – |
